What was measured:
α1 receptors = assay: Anti-α1 action: tonic contraction of isolated thoracic aorta induced by 10^−5 M norepinephrine; conditions: tonic contraction by 10^−5 M norepinephrine taken as 100%, guinea pig thoracic aorta
Experimental: The thoracic aorta of each Hartley male guinea pig (body weight: 300-500 g) was excised. A preparation cut in a helical form was suspended under 1 g load in a Magnus cylinder filled with the Tyrode solution which had been aerated with a gas mixture of 95% O2 and 5% CO2 and maintained at 37° C. Using an isometric transducer (“TB-612J”, manufactured by Nihon Kohden Corporation) and a pressure preamplifier (“AP-620G”, manufactured by Nihon Kohden Corporation), variations in tension were measured. The isometric tensions were recorded on a thermal pen-writing recorder (“WT-647G”, manufactured by Nihon Kohden Corporation). Taking the tonic contraction induced by 10^−5 M norepinephrine (NE) as 100%, the percent contractions upon addition of each test drug at 10^−8 M and 10^−7 M were determined as α1 action.

serotonin-2 receptor = assay: Anti-serotonin (5-HT) action: contraction of isolated superior mesenteric artery induced by 10^−5 M 5-HT; conditions: contraction by 10^−5 M 5-HT taken as 100%, guinea pig superior mesenteric artery
Experimental: (1) Anti-Serotonin (5-HT) Action
A preparation cut in a helical form was suspended under resting tension of 0.3 g in a Magnus cylinder filled with the Tyrode solution which had been aerated with a gas mixture of 95% O2 and 5% CO2 and maintained at 37° C. Using an isometric transducer (“UL-10”, manufactured by SHINKOH K.K.) and a pressure preamplifier (“DSA-605A”, manufactured by SHINKOH K.K.), variations in tension were measured. The isometric tensions were recorded on a pen-writing recorder (“VP-6537A”, manufactured by NATIONAL K.K.). Taking the contraction induced by 10^−5 M serotonin (5-HT) as 100%, the percent contractions by 10^−5 M 5-HT in the presence of each test drug at 10^−8 M, 10^−7 M and 10^−6 M were determined as anti-5-HT action.

In the case of `Cn1ccc2c1C(=O)CCN(CCCN1CCC(c3noc4cc(F)ccc34)CC1)C2=O` [Compound No. 50, 5-[3-[4-(6-fluoro-1,2-benzisoxazol-3-yl)piperidino]propyl]-1-methyl-1,4,5,6,7,8-hexahydropyrrolo[3,2-c]azepine-4,8-dione], the “Anti α1 action (% of Control)” value (α1 receptors; test drug 10^−7 M) is reported as 34.2 % of Control, the “Anti α1 action (% of Control)” value (α1 receptors; test drug 10^−8 M) is reported as 67.1 % of Control and the “Anti 5-HT action (% of Control)” value (serotonin-2 receptor; test drug 10^−7 M) is reported as 25.1 % of Control. For the same molecule, the “Anti 5-HT action (% of Control)” value (serotonin-2 receptor; test drug 10^−8 M) was 67.5 % of Control.
`Cn1ccc2c1C1(CCN(CCCN3CCN(c4ccc(F)cc4)CC3)C2=O)SCCS1` [Compound No. 52, 5-[3-[4-(4-fluorophenyl)piperazin-1-yl]propyl]-1-methyl-1,4,5,6,7,8-hexahydropyrrolo-[3,2-c]azepin-4-one-8-spiro-2′-(1′,3′-dithiolane)] was tested, and the “Anti α1 action (% of Control)” value (α1 receptors; test drug 10^−7 M) was 75.8 % of Control, the “Anti α1 action (% of Control)” value (α1 receptors; test drug 10^−8 M) was 96.8 % of Control and the “Anti 5-HT action (% of Control)” value (serotonin-2 receptor; test drug 10^−7 M) was 20.9 % of Control. The “Anti 5-HT action (% of Control)” value (serotonin-2 receptor; test drug 10^−8 M) was 75.5 % of Control.
With `Cn1ccc2c1C(=NO)CCN(CCCN1CCN(c3ccc(F)cc3)CC1)C2=O` [Compound No. 53, 5-[3-[4-(4-fluorophenyl)piperazin-1-yl]propyl]-8-hydroxyimino-1-methyl-1,4,5,6,7,8-hexahydropyrrolo[3,2-c]azepin-4-one] the “Anti α1 action (% of Control)” value (α1 receptors; test drug 10^−7 M) was 60.1 % of Control, the “Anti α1 action (% of Control)” value (α1 receptors; test drug 10^−8 M) was 86.1 % of Control and the “Anti 5-HT action (% of Control)” value (serotonin-2 receptor; test drug 10^−6 M) was 48.2 % of Control. The “Anti 5-HT action (% of Control)” value (serotonin-2 receptor; test drug 10^−7 M) was 87.1 % of Control.
`Cn1cc2c(c1)/C(=N\O)CCN(CCCN1CCN(c3ccc(F)cc3)CC1)C2=O` [Compound No. 55, 5-[3-[4-(4-fluorophenyl)piperazin-1-yl]propyl]-8-[(Z)-hydroxyimino]-2-methyl-2,4,5,6,7,8-hexahydropyrrolo[3,4-c]azepin-4-one] was tested, and the “Anti α1 action (% of Control)” value (α1 receptors; test drug 10^−7 M) was 73.5 % of Control, the “Anti α1 action (% of Control)” value (α1 receptors; test drug 10^−8 M) was 97.6 % of Control and the “Anti 5-HT action (% of Control)” value (serotonin-2 receptor; test drug 10^−6 M) was 11.0 % of Control. For the same molecule, the “Anti 5-HT action (% of Control)” value (serotonin-2 receptor; test drug 10^−7 M) was 59.5 % of Control.
In the case of `Cn1ccc2c1C(O)CCN(CCN1CCN(c3ccc(F)cc3)CC1)C2=O` (stereo not drawn) [Compound No. 56, 5-[2-[4-(4-fluorophenyl)piperazin-1-yl]ethyl]-8-hydroxy-1-methyl-1,4,5,6,7,8-hexahydropyrrolo[3,2-c]azepin-4-one], the “Anti α1 action (% of Control)” value (α1 receptors; test drug 10^−7 M) is reported as 71.4 % of Control, the “Anti α1 action (% of Control)” value (α1 receptors; test drug 10^−8 M) is reported as 96.7 % of Control and the “Anti 5-HT action (% of Control)” value (serotonin-2 receptor; test drug 10^−6 M) is reported as 47.9 % of Control. For the same molecule, the “Anti 5-HT action (% of Control)” value (serotonin-2 receptor; test drug 10^−7 M) was 90.2 % of Control.
In the case of `Cn1ccc2c1C(O)CCN(CCCN1CCN(c3ccc(F)cc3)CC1)C2=O` (stereo not drawn) [Compound No. 57, 5-[3-[4-(4-fluorophenyl)piperazin-1-yl]propyl]-8-hydroxy-1-methyl-1,4,5,6,7,8-hexahydropyrrolo[3,2-c]azepin-4-one], the “Anti α1 action (% of Control)” value (α1 receptors; test drug 10^−7 M) is reported as 91.4 % of Control, the “Anti α1 action (% of Control)” value (α1 receptors; test drug 10^−8 M) is reported as 100 % of Control and the “Anti 5-HT action (% of Control)” value (serotonin-2 receptor; test drug 10^−6 M) is reported as 7.5 % of Control. The “Anti 5-HT action (% of Control)” value (serotonin-2 receptor; test drug 10^−7 M) was 12.0 % of Control and the “Anti 5-HT action (% of Control)” value (serotonin-2 receptor; test drug 10^−8 M) was 54.6 % of Control.
With `Cc1cn(C)c2c1C(=O)N(CCCN1CCN(c3ccc(F)cc3)CC1)CCC2O` (stereo not drawn) [Compound No. 59, 5-[3-[4-(4-fluorophenyl)piperazin-1-yl]propyl]-8-hydroxy-1,3-dimethyl-1,4,5,6,7,8-hexahydropyrrolo[3,2-c]azepin-4-one] the “Anti α1 action (% of Control)” value (α1 receptors; test drug 10^−7 M) was 47.3 % of Control, the “Anti α1 action (% of Control)” value (α1 receptors; test drug 10^−8 M) was 81.6 % of Control and the “Anti 5-HT action (% of Control)” value (serotonin-2 receptor; test drug 10^−7 M) was 12.5 % of Control. For the same molecule, the “Anti 5-HT action (% of Control)” value (serotonin-2 receptor; test drug 10^−8 M) was 48.5 % of Control.
In the case of `O=C1c2ccn(-c3ccccc3)c2C(O)CCN1CCCN1CCN(c2ccc(F)cc2)CC1` (stereo not drawn) [Compound No. 61, 5-[3-[4-(4-fluorophenyl)piperazin-1-yl]propyl]-8-hydroxy-1-phenyl-1,4,5,6,7,8-hexahydropyrrolo[3,2-c]azepin-4-one], the “Anti α1 action (% of Control)” value (α1 receptors; test drug 10^−7 M) is reported as 39.4 % of Control, the “Anti α1 action (% of Control)” value (α1 receptors; test drug 10^−8 M) is reported as 96.1 % of Control and the “Anti 5-HT action (% of Control)” value (serotonin-2 receptor; test drug 10^−6 M) is reported as 37.3 % of Control. For the same molecule, the “Anti 5-HT action (% of Control)” value (serotonin-2 receptor; test drug 10^−7 M) was 74.3 % of Control.
In the case of `O=C1c2ccn(Cc3ccccc3)c2C(O)CCN1CCCN1CCN(c2ccc(F)cc2)CC1` (stereo not drawn) [Compound No. 62, 1-benzyl-5-[3-[4-(4-fluorophenyl)piperazin-1-yl]propyl]-8-hydroxy-1,4,5,6,7,8-hexahydropyrrolo[3,2-c]azepin-4-one], the “Anti α1 action (% of Control)” value (α1 receptors; test drug 10^−7 M) is reported as 31.7 % of Control, the “Anti α1 action (% of Control)” value (α1 receptors; test drug 10^−8 M) is reported as 95.0 % of Control and the “Anti 5-HT action (% of Control)” value (serotonin-2 receptor; test drug 10^−6 M) is reported as 11.1 % of Control. The “Anti 5-HT action (% of Control)” value (serotonin-2 receptor; test drug 10^−7 M) was 50.6 % of Control.
`Cn1ccc2c1C(O)CCN(CCCN1CCC(c3ccccc3)CC1)C2=O` (stereo not drawn) [Compound No. 73, 8-hydroxy-1-methyl-5-[3-(4-phenylpiperidino)propyl]-1,4,5,6,7,8-hexahydropyrrolo-[3,2-c]azepin-4-one] was tested, and the “Anti α1 action (% of Control)” value (α1 receptors; test drug 10^−7 M) was 94.0 % of Control, the “Anti α1 action (% of Control)” value (α1 receptors; test drug 10^−8 M) was 99.3 % of Control and the “Anti 5-HT action (% of Control)” value (serotonin-2 receptor; test drug 10^−6 M) was 14.9 % of Control. For the same molecule, the “Anti 5-HT action (% of Control)” value (serotonin-2 receptor; test drug 10^−7 M) was 54.7 % of Control and the “Anti 5-HT action (% of Control)” value (serotonin-2 receptor; test drug 10^−8 M) was 90.7 % of Control.
`Cn1ccc2c1C(O)CCN(CCCN1CCC(C(=O)c3ccc(F)cc3)CC1)C2=O` (stereo not drawn) [Compound No. 75, 5-[3-[4-(4-fluorobenzoyl)piperidino]-propyl]-8-hydroxy-1-methyl-1,4,5,6,7,8-hexahydropyrrolo[3,2-c]azepin-4-one] was tested, and the “Anti α1 action (% of Control)” value (α1 receptors; test drug 10^−7 M) was 70.3 % of Control, the “Anti α1 action (% of Control)” value (α1 receptors; test drug 10^−8 M) was 98.3 % of Control and the “Anti 5-HT action (% of Control)” value (serotonin-2 receptor; test drug 10^−6 M) was 25.2 % of Control. For the same molecule, the “Anti 5-HT action (% of Control)” value (serotonin-2 receptor; test drug 10^−7 M) was 71.7 % of Control.
For `COC1CCN(CCCN2CCN(c3ccc(Cl)cc3)CC2)C(=O)c2ccn(C)c21` (stereo not drawn) [Compound No. 76, 5-[3-[4-(4-chlorophenyl)piperazin-1-yl]propyl]-8-methoxy-1-methyl-1,4,5,6,7,8-hexahydropyrrolo[3,2-c]azepin-4-one], the “Anti α1 action (% of Control)” value (α1 receptors; test drug 10^−7 M) was 88.1 % of Control, the “Anti α1 action (% of Control)” value (α1 receptors; test drug 10^−8 M) was 98.9 % of Control and the “Anti 5-HT action (% of Control)” value (serotonin-2 receptor; test drug 10^−6 M) was 7.2 % of Control. For the same molecule, the “Anti 5-HT action (% of Control)” value (serotonin-2 receptor; test drug 10^−7 M) was 35.5 % of Control.
In the case of `Cn1ccc2c1C=CCN(CCCN1CCN(c3ccc(Cl)cc3)CC1)C2=O` [Compound No. 79, 5-[3-[4-(4-chlorophenyl)piperazin-1-yl]propyl]-1-methyl-1,4,5,6-tetrahydropyrrolo[3,2-c]azepin-4-one], the “Anti α1 action (% of Control)” value (α1 receptors; test drug 10^−7 M) is reported as 58.1 % of Control, the “Anti α1 action (% of Control)” value (α1 receptors; test drug 10^−8 M) is reported as 94.8 % of Control and the “Anti 5-HT action (% of Control)” value (serotonin-2 receptor; test drug 10^−7 M) is reported as 31.8 % of Control. The “Anti 5-HT action (% of Control)” value (serotonin-2 receptor; test drug 10^−8 M) was 78.3 % of Control.
In the case of `Cn1ccc2c1CCCN(CCCN1CCN(c3ccc(F)cc3)CC1)C2=O` [Compound No. 82, 5-[3-[4-(4-fluorophenyl)piperazin-1-yl]propyl]-1-methyl-1,4,5,6,7,8-hexahydropyrrolo-[3,2-c]azepin-4-one], the “Anti α1 action (% of Control)” value (α1 receptors; test drug 10^−7 M) is reported as 37.6 % of Control, the “Anti α1 action (% of Control)” value (α1 receptors; test drug 10^−8 M) is reported as 87.6 % of Control and the “Anti 5-HT action (% of Control)” value (serotonin-2 receptor; test drug 10^−7 M) is reported as 8.4 % of Control. For the same molecule, the “Anti 5-HT action (% of Control)” value (serotonin-2 receptor; test drug 10^−8 M) was 35.2 % of Control.
For `Cn1ccc2c1[C@H](O)CCN(CCCN1CCN(c3ccc(F)cc3)CC1)C2=O` [Compound No. 84], the “Anti α1 action (% of Control)” value (α1 receptors; test drug 10^−7 M) was 92.4 % of Control, the “Anti α1 action (% of Control)” value (α1 receptors; test drug 10^−8 M) was 100 % of Control and the “Anti 5-HT action (% of Control)” value (serotonin-2 receptor; test drug 10^−6 M) was 11.9 % of Control. The “Anti 5-HT action (% of Control)” value (serotonin-2 receptor; test drug 10^−7 M) was 61.9 % of Control and the “Anti 5-HT action (% of Control)” value (serotonin-2 receptor; test drug 10^−8 M) was 82.0 % of Control.

Source: patent US6713634B2, “Pyrroloazepine derivatives” (Daiichi Suntory Pharma Co., Ltd., priority 1995, dated 2004)
